Square brackets hold non-standard residues; d marks the D form. Ends that are not written are not given here. pGlu = O=C1CC[C@@H](C(=O)O)N1
System: panelists
Test: Attribute perception scores of flavor enhancers in solution (Example 6)
Assay type: in vivo, human
Parameters: key to Metallic / Numbing / Atringent / Salt / Sweet / Sour / Bitter / Umami / Sour, mean evaluation score in solution / Numbing, mean evaluation score in solution / Astringent / Umami FF: 15-point intensity scale, 0 = none, 15 = very strong
Conditions: for Astringent / Bitter / Flinty/Mineral / Metallic / Numbing / Salt / Sour / Sweet / Umami / Umami FF / Atringent / Mineral/Flinty / Umami/brothy: solution
Protocol: Descriptive attributes (e.g., taste, flavor and chemical feeling factors) of three use levels of pGlu-Cys (FE-35), pGlu-Cys-Gly (FE-36), pGlu-Cys-Cys (FE-37), pGlu-Cys-Val (FE-38) and pGlu-Val-Cys (UE-30) flavor composition peptides were determined. The three use levels were as follows: 1.0 ppb, 10.0 ppb and 100.0 ppb.
Data was collected for the attributes of the product in-mouth for the use levels according to the following protocol: • The samples were analyzed for flavor by six to nine members of a panel, trained and experienced in flavor evaluation using the Spectrum™ method. Samples were evaluated across multiple panel sessions. • The strength of each attribute was rated on a 15-point scale, where 0=none and 15=very strong. • This scale incorporates the ability to use tenths of a point and therefore has the potential of 150 scale differentiations. • The scale may be expanded beyond 15 points to include extreme ratings if necessary.
A summary of the concentrations of NaCl, water and flavor composition peptides in the solution samples is described in table 24.
The panelists evaluated each sample for the attributes described by table 25.

[1] = 10.0 ppb, mean evaluation score
[2] = 100.0 ppb, mean evaluation score
[3] = Concentration 1, MAX, 15-point scale
[4] = Concentration 1, MEAN, 15-point scale
[5] = Concentration 1, MIN, 15-point scale
[6] = Concentration 10, MAX, 15-point scale
[7] = Concentration 10, MEAN, 15-point scale
[8] = Concentration 10, MIN, 15-point scale
[9] = Concentration 100, MAX, 15-point scale
[10] = Concentration 100, MEAN, 15-point scale
[11] = Concentration 100, MIN, 15-point scale

[pGlu]-Cys [FE-35]
1.2: Mineral/Flinty [6]
show no distinct pattern: Mineral/Flinty aromatic in solution as the concentration increases (1.0 to 100 ppb) | Salt perception level in solution as the concentration increases (1.0 to 100 ppb)
0.7: Flinty/Mineral [2] | Mineral/Flinty [10]
1.5: Umami (1.0 ppb, mean evaluation score) | Umami FF (1.0 ppb, mean evaluation score) | Umami [4] | Umami/brothy [4] | Salt [5] | Mineral/Flinty [9] | Umami [9] | Salt [11]
0.9: Flinty/Mineral (1.0 ppb, mean evaluation score) | Flinty/Mineral [1] | Mineral/Flinty [4] | Mineral/Flinty [7]
1.1: Umami FF [1] | Umami FF [2] | Umami [7] | Umami [10]
2.5: Salt [9]
1.8: Salt (1.0 ppb, mean evaluation score) | Salt [4]
decreases slightly: Umami aromatic in solution as the concentration increases (1.0 to 100 ppb)
shows no distinct pattern: Umami feeling factor in solution as the concentration increases (1.0 to 100 ppb)
2.2: Salt [8]
0.1: Bitter (1.0 ppb, mean evaluation score) | Bitter [4]
0.0: Astringent (1.0 ppb, mean evaluation score) | Metallic (1.0 ppb, mean evaluation score) | Numbing (1.0 ppb, mean evaluation score) | Sour (1.0 ppb, mean evaluation score) | Astringent [1] | Bitter [1] | Numbing [1] | Sour [1] | Astringent [2] | Bitter [2] | Numbing [2] | Sour [2] | Atringent [3] | Metallic [3] | Numbing [3] | Sour [3] | Atringent [4] | Metallic [4] | Numbing [4] | Sour [4] | Atringent [5] | Bitter [5] | Metallic [5] | Numbing [5] | Sour [5] | Sweet [5] | Atringent [6] | Bitter [6] | Numbing [6] | Sour [6] | Atringent [7] | Bitter [7] | Numbing [7] | Sour [7] | Atringent [8] | Bitter [8] | Metallic [8] | Mineral/Flinty [8] | Numbing [8] | Sour [8] | Sweet [8] | Umami [8] | Umami/brothy [8] | Atringent [9] | Bitter [9] | Numbing [9] | Sour [9] | Atringent [10] | Bitter [10] | Numbing [10] | Sour [10] | Atringent [11] | Bitter [11] | Metallic [11] | Mineral/Flinty [11] | Numbing [11] | Sour [11] | Sweet [11] | Umami [11] | Umami/brothy [11]
0.8: Umami [1] | Umami/brothy [7]
1.0: Mineral/Flinty [3] | Sweet [3] | Umami [5] | Umami/brothy [5] | Sweet [6] | Metallic [9] | Sweet [9] | Umami/brothy [9]
2.6: Salt [1] | Salt [7]
3.0: Salt [6]
0.2: Sweet [2] | Umami [2] | Sweet [10] | Umami/brothy [10]
0.3: Sweet (1.0 ppb, mean evaluation score) | Metallic [1] | Sweet [1] | Metallic [2] | Sweet [4] | Metallic [7] | Sweet [7] | Metallic [10]
2.0: Salt [2] | Salt [3] | Umami [3] | Umami/brothy [3] | Metallic [6] | Umami [6] | Umami/brothy [6] | Salt [10]
0.5: Bitter [3] | Mineral/Flinty [5]

— patent US10856562B2, “Flavor composition and edible compositions containing same” (MARS, INCORPORATED, priority 2013, dated 2020)
